Measured values taken from publication PMC12486152, “Design, modular synthesis and screening of 58 shape-diverse 3-D fragments” (Chemical Science, 2025).

Target: T1, N-acetylglucosaminyltransferase V (MGATV) (Homo sapiens, UniProt Q09328)
T1 construct: gene MGAT5
Test: X-ray crystal structure by soaking; also thermal shift, STD NMR and enzyme (UDP-Glo) inhibition (IC50, n = […])
Format: biochemical

T1 sequence (Q09328 214-741): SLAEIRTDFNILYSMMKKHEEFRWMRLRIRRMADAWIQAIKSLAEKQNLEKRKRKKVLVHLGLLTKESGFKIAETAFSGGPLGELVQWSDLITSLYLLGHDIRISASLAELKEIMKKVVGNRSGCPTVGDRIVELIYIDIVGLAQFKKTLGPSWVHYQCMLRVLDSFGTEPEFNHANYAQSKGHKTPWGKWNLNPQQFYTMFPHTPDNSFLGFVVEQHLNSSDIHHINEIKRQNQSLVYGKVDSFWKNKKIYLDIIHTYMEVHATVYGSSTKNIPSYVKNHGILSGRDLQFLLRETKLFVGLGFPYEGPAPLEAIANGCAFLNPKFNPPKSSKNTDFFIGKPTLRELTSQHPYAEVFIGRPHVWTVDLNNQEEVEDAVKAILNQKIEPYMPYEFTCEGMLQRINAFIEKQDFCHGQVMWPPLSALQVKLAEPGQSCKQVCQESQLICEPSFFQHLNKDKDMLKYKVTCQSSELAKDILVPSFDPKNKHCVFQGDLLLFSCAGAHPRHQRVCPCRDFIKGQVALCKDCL

CC(=O)N1CCCC(C(=O)O)(c2ccc(C)cc2)C1 (racemic) [8p]
IC50: ~4.4 mM
